How the values were obtained:
Assay type in all cases: binding
Conditions in all cases: Compound Concentration 10 µM
[1] = target: T1, panel of 442 kinases (Homo sapiens, UniProt P04626)
T1 construct: purchased KINOMEscan
Source text: (§1) We assessed the selectivity of members of this scaffold using the KINOMEscan methodology across a near comprehensive panel of 442 kinases [[18,27]].

[2] = target: T2, panel of 442 kinases (Homo sapiens, UniProt P48730)
T2 construct: purchased KINOMEscan
Source text: as §1

[3] = target: T3, panel of 442 kinases (Homo sapiens, UniProt Q16539)
T3 construct: purchased KINOMEscan
T3 sequence (Q16539 whole entry): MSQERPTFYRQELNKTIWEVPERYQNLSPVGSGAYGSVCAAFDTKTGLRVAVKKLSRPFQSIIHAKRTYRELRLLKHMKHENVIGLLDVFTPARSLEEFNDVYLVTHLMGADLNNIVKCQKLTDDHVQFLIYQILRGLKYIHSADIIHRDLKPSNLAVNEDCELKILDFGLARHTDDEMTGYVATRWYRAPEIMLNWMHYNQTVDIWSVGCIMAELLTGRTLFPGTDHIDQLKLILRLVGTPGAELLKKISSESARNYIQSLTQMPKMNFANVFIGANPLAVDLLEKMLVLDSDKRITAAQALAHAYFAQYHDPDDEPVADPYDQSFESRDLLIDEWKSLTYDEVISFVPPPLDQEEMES
Source text: as §1

[4] = target: T4, panel of 442 kinases (Plasmodium falciparum, UniProt P62344)
T4 construct: purchased KINOMEscan
T4 sequence (P62344 whole entry): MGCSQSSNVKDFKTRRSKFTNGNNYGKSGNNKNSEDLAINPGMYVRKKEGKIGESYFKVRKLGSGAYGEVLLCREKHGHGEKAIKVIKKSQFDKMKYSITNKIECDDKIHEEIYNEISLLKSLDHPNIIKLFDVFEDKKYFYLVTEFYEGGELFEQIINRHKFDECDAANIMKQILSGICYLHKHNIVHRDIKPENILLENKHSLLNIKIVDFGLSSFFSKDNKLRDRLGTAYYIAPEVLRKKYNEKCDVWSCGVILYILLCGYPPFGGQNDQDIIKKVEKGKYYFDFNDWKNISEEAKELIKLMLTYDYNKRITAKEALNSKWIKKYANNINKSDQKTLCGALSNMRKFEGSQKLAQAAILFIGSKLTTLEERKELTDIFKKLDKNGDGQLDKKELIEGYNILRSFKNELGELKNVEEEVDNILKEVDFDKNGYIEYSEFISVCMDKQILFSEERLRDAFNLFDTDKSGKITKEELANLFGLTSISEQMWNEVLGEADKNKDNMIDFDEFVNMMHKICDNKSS
Source text: as §1

T1 sequence (P04626 23-1255): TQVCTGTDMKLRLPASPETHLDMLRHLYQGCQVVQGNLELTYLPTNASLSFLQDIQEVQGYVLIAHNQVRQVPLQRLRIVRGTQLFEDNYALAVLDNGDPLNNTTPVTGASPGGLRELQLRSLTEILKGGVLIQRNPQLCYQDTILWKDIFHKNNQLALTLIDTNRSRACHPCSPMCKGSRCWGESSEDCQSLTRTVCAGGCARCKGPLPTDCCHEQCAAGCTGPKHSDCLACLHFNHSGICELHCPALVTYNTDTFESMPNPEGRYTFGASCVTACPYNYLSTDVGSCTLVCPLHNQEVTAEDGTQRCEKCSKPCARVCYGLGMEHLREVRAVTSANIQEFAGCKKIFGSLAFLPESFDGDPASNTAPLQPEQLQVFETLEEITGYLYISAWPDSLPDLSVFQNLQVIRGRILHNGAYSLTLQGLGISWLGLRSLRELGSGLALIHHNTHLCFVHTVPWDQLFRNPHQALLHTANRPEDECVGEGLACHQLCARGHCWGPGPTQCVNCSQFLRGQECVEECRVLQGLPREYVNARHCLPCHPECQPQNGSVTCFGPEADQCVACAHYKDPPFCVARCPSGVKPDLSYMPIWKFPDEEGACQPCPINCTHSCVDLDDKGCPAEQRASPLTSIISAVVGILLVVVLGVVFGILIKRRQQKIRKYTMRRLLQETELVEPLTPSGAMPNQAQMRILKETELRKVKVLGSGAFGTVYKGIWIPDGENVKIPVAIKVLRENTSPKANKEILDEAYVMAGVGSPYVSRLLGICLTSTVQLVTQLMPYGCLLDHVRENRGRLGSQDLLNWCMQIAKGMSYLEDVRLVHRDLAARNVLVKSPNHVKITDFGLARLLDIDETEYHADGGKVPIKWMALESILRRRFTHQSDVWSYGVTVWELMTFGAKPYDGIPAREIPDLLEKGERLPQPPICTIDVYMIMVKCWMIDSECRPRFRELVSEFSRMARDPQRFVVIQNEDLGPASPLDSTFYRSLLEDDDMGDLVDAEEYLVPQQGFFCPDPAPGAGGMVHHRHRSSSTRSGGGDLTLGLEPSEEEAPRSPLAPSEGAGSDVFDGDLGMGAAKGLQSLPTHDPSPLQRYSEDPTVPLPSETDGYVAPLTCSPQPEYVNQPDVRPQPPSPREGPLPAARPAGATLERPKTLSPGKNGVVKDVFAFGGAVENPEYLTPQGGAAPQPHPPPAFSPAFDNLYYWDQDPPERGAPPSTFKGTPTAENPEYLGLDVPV
T2 sequence (P48730 whole entry): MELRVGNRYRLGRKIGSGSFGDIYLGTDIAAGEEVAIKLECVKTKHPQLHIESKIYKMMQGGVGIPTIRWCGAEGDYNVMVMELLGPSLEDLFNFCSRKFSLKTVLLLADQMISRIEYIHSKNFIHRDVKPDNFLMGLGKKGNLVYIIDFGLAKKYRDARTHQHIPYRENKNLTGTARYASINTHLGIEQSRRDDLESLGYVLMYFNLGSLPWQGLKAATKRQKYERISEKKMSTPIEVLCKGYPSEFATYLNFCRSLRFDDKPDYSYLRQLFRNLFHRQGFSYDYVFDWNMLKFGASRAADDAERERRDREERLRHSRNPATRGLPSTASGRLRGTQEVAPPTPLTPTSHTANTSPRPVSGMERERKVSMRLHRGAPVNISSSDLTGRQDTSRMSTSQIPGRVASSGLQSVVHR

SMILES | KINOMEscan: ERBB2 [1] | KINOMEscan: CSNK1D [2] | KINOMEscan: p38-alpha [3] | KINOMEscan: PFCDPK1(P.falciparum) [4]
COc1cc(C(=O)N2CCC(N3CCN(C)CC3)CC2)ccc1Nc1ncc2c(n1)N(C)c1ccccc1C(=O)N2C [15 (LRRK2-IN-1)] | 100 | 81 | 87 | 100
COc1cc(C(=O)N2CCC(N3CCN(C)CC3)CC2)ccc1Nc1ncc2c(n1)N1CCc3cccc(c31)C(=O)N2C [Compound 24] |  | 60 |  | 
COc1cc(C(=O)N2CCC(N3CCN(C)CC3)CC2)ccc1Nc1ncc2c(n1)N(C1CCCC1)c1ccccc1C(=O)N2C [Compound 25, 11-cyclopentyl-2-((2-methoxy-4-(4-(4-methylpiperazin-1-yl)piperidine-1-carbonyl)phenyl)amino)-5-methyl-5H-benzo[e]pyrimido[5,4-b][1,4]diazepin-6(11H)-one] | 100 | 98 | 99 | 91
CCOc1cc(C(=O)N2CCC(N3CCN(C)CC3)CC2)ccc1Nc1ncc2c(n1)N(C1CCCC1)c1ccccc1C(=O)N2C [Compound 26] | 100 | 100 | 94 | 100

— PMC3914206
